1 molecule from patent US5132216A, “Microbial transformation process for antihypertensive products” (Merck & Co., Inc., priority 1991, dated 1992) can be followed below.

This test deals with T1, Angiotensin II (A II) receptor (Oryctolagus cuniculus, UniProt P34976).
T1 sequence (P34976 1-359): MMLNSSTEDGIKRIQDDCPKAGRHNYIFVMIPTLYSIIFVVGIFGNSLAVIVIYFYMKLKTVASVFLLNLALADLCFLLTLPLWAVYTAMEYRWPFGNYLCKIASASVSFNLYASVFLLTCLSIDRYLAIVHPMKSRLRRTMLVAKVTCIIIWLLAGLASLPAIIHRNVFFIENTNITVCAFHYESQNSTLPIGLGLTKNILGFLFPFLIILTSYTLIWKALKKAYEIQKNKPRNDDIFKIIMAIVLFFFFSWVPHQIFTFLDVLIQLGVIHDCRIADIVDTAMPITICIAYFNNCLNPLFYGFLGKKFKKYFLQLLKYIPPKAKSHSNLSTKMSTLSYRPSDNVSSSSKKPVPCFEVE
As to the kind of experiment: Receptor binding assay using rabbit aortae membrane preparation (125I-Sar1Ile8-angiotensin II displacement, "IC50" assay). The procedure:
This assay is also referred to herein as the "IC50 " assay.
Receptor binding assay using rabbit aortae membrane preparation
Three frozen rabbit aortae (obtained from Pel-Freeze Biologicals) were suspended in 5 mM Tris-0.25M Sucrose, pH 7.4 buffer (50 ml) homogenized, and then centifuged. The mixture was filtered through a cheesecloth and the supernatant was centrifuged for 30 minutes at 20,000 rpm at 4° C. The pellet thus obtained was resuspended in 30 ml of 50 mM Tris-5 mM MgCl2 buffer containing 0.2% Bovine Serum Albumin and 0.2 mg/ml Bacitration and the suspension was used for 100 assay tubes. Samples tested for screening were done in duplicate. To the membrane preparation (0.25 ml) there was added ^125 I-Sar^1 Ile^8 -angiotensin II [obtained from New England Nuclear] (10 ul; 20,000 cpm) with or without the test sample and the mixture was incubated at 37° C. for 90 minutes. The mixture was then diluted with ice-cold 50 mM Tris-0.9% NaCl, pH 7.4 (4 ml) and filtered through a glass fiber filter (GF/B Whatman 2.4" diameter). The filter was soaked in scintillation cocktail (10 ml) and counted for radioactivity using Packard 2660 Tricarb liquid scintillation counter. […]

Structures are written as SMILES.

`Cc1cc(CO)nc2c1nc(C(C)O)n2Cc1ccc(-c2ccccc2-c2nnn[nH]2)cc1` (stereo not shown) [compound (IV)]: the “A II antagonist activity by the IC50 assay” value is listed as “exhibit A II antagonist activity”.
